The target of the test is T1, human TGR5 (Homo sapiens, UniProt Q8TDU6).
T1 construct: expressed in transfected cells; host or cells: HEK-293 cells, stably transfected (pcDNA 3.1, Fugene6, geneticin selection)
T1 sequence (Q8TDU6 1-330): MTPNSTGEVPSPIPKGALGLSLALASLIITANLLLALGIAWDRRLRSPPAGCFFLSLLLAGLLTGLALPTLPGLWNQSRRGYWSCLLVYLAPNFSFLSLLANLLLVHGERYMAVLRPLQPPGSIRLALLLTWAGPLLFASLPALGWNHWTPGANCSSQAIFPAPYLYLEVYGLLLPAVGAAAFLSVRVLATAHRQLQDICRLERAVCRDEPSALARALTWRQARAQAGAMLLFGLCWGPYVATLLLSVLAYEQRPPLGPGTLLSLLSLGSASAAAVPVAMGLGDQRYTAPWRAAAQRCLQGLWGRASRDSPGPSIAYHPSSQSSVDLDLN
Description: cAMP production assay in HEK293-TGR5 cells. It is filed as cell-based. The settings on record: HEK293 cells stably expressing human TGR5; 30 minutes stimulation; LANCE cAMP TR-FRET; read-out: cAMP Production in 293-TGR5 Cells EC50. As for the experimental part:
HEK293 cells stably expressing TGR5 (HEK293-TGR5) were established by stably transfecting HEK-293 cells with an expression vector (pcDNA 3.1, Invetrogen) inserted with human TGR5 cDNA using Fugene6 (Roche, Indianapolis, Ind.) according to conventional methods. Cells were grown in DMEM (invitrogen, Carlsbad, Calif.) supplemented with 10% FBS, 1% penicillin/streptomycin under geneticin selection. The presence of TGR5 transcripts in these cells was confirmed using branched DNA (bDNA, Genospectra, Inc., Fremont Calif.) following the manufacturer's protocol and using specific probes for human TGR5. cAMP production assay was performed in high throughput 1536 well format using LANCE cAMP detection kit (Perkin Elmer Inc., Boston, Mass.) according to the manufacturer's protocol. Briefly, HEK293-TGR5 cells were harvested using non-enzymatic cell dissociation buffer (Invitrogen, Carlsbad, Calif.) and suspended in DMEM supplemented with 0.1% FBS at a density of 800,000 cells/ml. Alexa antibody was added to the cell suspension, and 4 ul of the mixture was dispensed in white opaque tissue culture treated Greiner 1536 well plates (USA Scientific, Inc., Ocala, Fla.). After an overnight incubation at 37C in an atmosphere of 10% CO2 and 95% humidity, 1 ul of 5 mM IBMX (Sigma, St. Louis, Mo.) solution in DMEM was dispensed for a final concentration of 1 mM. Cells were then stimulated with test compounds for 30 minutes, after which time 5 ul of detection reagent was added and incubated for 1-7 hrs at room temperature. TR-FRET signal was detected using the Viewlux (Perkin Elmer Inc., Boston Mass.). EC50 values were determined using Graph Pad Prizm analysis (GraphPad Software, Inc).
In general terms: cAMP levels reflect the balance of adenylyl cyclase and phosphodiesterase activity.

A word on the EC50: it is the concentration at which the effect is half-maximal.

The structures appear in SMILES notation.

Take `COc1ccc2cc(CNCc3ccc(C(F)(F)F)cc3)c(-c3ccccc3)nc2c1` [Example 48, 1-(7-Methoxy-2-phenylquinolin-3-yl)-N-(4-(trifluoromethyl)benzyl)methanamine]: the concentration for a half-maximal effect (EC50) is less than 10 µM.
Take `CCOc1ccc2cc(CNCCc3ccc(Cl)cc3)c(-c3ccsc3)nc2c1` [Example 50, 2-(4-Chlorophenyl)-N-((7-ethoxy-2-(thiophen-3-yl)quinolin-3-yl)methyl)ethanamine]: the EC50 was less than 10 µM.
To `CCOc1ccc2cc(CNCc3ccc(C(F)(F)F)cc3)c(-c3ccsc3)nc2c1` [Example 51, 1-(7-Ethoxy-2-(thiophen-3-yl)quinolin-3-yl)-N-(4-(trifluoromethyl)benzyl)methanamine] belongs less than 10 µM; to `COc1ccc2cc(CNCc3ccc(Br)cc3)c(-c3ccncc3)nc2c1` [Example 52, N-(4-Bromobenzyl)-1-(7-methoxy-2-(pyridin-4-yl)quinolin-3-yl)methanamine], less than 10 µM.
To `COc1cc(OC)c2cc(CNCc3ccc(C(F)(F)F)cc3)c(-c3ccsc3)nc2c1` [Example 53, 1-(5,7-Dimethoxy-2-(thiophen-3-yl)quinolin-3-yl)-N-(4-(trifluoromethyl)benzyl)methanamine] belongs less than 10 µM; to `COc1cc(OC)c2cc(CNCCc3ccc(Br)cc3)c(-c3ccsc3)nc2c1` [Example 54, 2-(4-Bromophenyl)-N-((5,7-dimethoxy-2-(thiophen-3-yl)quinolin-3-yl)methyl)ethanamine], less than 10 µM; to `COc1ccc2cc(CNCc3ccc(C(F)(F)F)cc3)c(-c3cscc3C)nc2c1` [Example 55, 1-(7-Methoxy-2-(4-methylthiophen-3-yl)quinolin-3-yl)-N-(4-(trifluoromethyl)benzyl)methanamine], greater than 10 µM.
`COc1ccc2cc(CNCCc3ccc(Br)cc3)c(-c3cscc3C)nc2c1` [Example 56, 2-(4-Bromophenyl)-N-((7-methoxy-2-(4-methylthiophen-3-yl)quinolin-3-yl)methyl)ethanamine]: the EC50 is greater than 10 µM.
For `COc1ccc2cc(CNCCc3ccc(Cl)c(Cl)c3)c(-c3ccsc3)nc2c1` [Example 61, 2-(3,4-Dichlorophenyl)-N-((7-methoxy-2-(thiophen-3-yl)quinolin-3-yl)methyl)ethanamine], the EC50 is less than 10 µM.
As to `COc1ccc2cc(CNCc3ccc4c(c3)OCO4)c(-c3ccsc3)nc2c1` [Example 64, 1-(Benzo[d][1,3]dioxol-5-yl)-N-((7-methoxy-2-(thiophen-3-yl)quinolin-3-yl)methyl)methanamine], the 50% effective concentration (EC50) is greater than 10 µM.
To `COc1ccc2cc(CNCCc3ccc(OC)c(Br)c3)c(-c3ccsc3)nc2c1` [Example 65, 2-(3-Bromo-4-methoxyphenyl)-N-((7-methoxy-2-(thiophen-3-yl)quinolin-3-yl)methyl)ethanamine] belongs less than 10 µM; to `COc1ccc2cc(CNCc3ccc(Cl)c(Cl)c3)c(-c3ccsc3)nc2c1` [Example 66, N-(3,4-Dichlorobenzyl)-1-(7-methoxy-2-(thiophen-3-yl)quinolin-3-yl)methanamine], less than 10 µM; to `COc1ccc2cc(CNCc3ccc([N+](=O)[O-])cc3)c(-c3ccsc3)nc2c1` [Example 67, 1-(7-Methoxy-2-(thiophen-3-yl)quinolin-3-yl)-N-(4-nitrobenzyl)methanamine], less than 10 µM.
Consider `COc1ccc2cc(CNc3ccccc3)c(-c3ccsc3)nc2c1` [Example 68, N-((7-Methoxy-2-(thiophen-3-yl)quinolin-3-yl)methyl)aniline], for which the EC50 was less than 10 µM.
Turning to `COc1ccc2cc(CNc3ccc(Cl)cc3)c(-c3ccsc3)nc2c1` [Example 69, 4-Chloro-N-((7-methoxy-2-(thiophen-3-yl)quinolin-3-yl)methyl)aniline], the EC50 is less than 10 µM.
To `COc1ccc2cc(CNCc3ccncc3)c(-c3ccsc3)nc2c1` [Example 70, 1-(7-Methoxy-2-(thiophen-3-yl)quinolin-3-yl)-N-(pyridin-4-ylmethyl)methanamine] belongs greater than 10 µM.
For `COc1ccc2cc(CNCc3cnc(C)cn3)c(-c3ccsc3)nc2c1` [Example 71, 1-(7-Methoxy-2-(thiophen-3-yl)quinolin-3-yl)-N-((5-methylpyrazin-2-yl)methyl)methanamine], the EC50 was less than 10 µM.
Turning to `COc1ccc2cc(CNCc3cccnc3)c(-c3ccsc3)nc2c1` [Example 72, 1-(7-Methoxy-2-(thiophen-3-yl)quinolin-3-yl)-N-(pyridin-3-ylmethyl)methanamine], the EC50 was greater than 10 µM.
As to `COc1ccc2cc(CNCCc3ccc(Br)cc3)c(-c3csc4ccccc34)nc2c1` [Example 73, N-((2-(Benzo[b]thiophen-3-yl)-7-methoxyquinolin-3-yl)methyl)-2-(4-bromophenyl)ethanamine], the EC50 is less than 10 µM.
With `COc1cc(OC)c(CNCc2cc3ccc(OC)cc3nc2-c2ccncc2)c(OC)c1` [Example 74, 1-(7-Methoxy-2-(pyridin-4-yl)quinolin-3-yl)-N-(2,4,6-trimethoxybenzyl)methanamine], the EC50 is greater than 10 µM.
`COc1ccc2cc(CNCc3ccc(C(C)(C)C)cc3)c(-c3ccncc3)nc2c1` [Example 75, N-(4-tert-Butylbenzyl)-1-(7-methoxy-2-(pyridin-4-yl)quinolin-3-yl)methanamine]: the EC50 was less than 10 µM.
On to `COc1ccc2cc(CNCCc3cccnc3)c(-c3ccncc3)nc2c1` [Example 76, N-((7-Methoxy-2-(pyridin-4-yl)quinolin-3-yl)methyl)-2-(pyridin-3-yl)ethanamine], for which the EC50 is less than 10 µM.
As to `COc1ccc2cc(CNCc3ccc(C(F)(F)F)cc3)c(-c3ccco3)nc2c1` [Example 77, 1-(2-(Furan-2-yl)-7-methoxyquinolin-3-yl)-N-(4-(trifluoromethyl)benzyl)methanamine], the EC50 was greater than 10 µM.
Regarding `COc1ccc2cc(CNCc3ccco3)c(-c3ccsc3)nc2c1` [Example 78, 1-(Furan-2-yl)-N-((7-methoxy-2-(thiophen-3-yl)quinolin-3-yl)methyl)methanamine], the EC50 was less than 10 µM.
As for `Oc1ccc2cc(CNCc3ccc(C(F)(F)F)cc3)c(-c3ccsc3)nc2c1` [Example 79, 2-(Thiophen-3-yl)-3-((4-(trifluoromethyl)benzylamino)methyl)quinolin-7-ol], the EC50 was less than 10 µM.
As to `COc1ccc2cc(CNCCc3ccccn3)c(-c3ccncc3)nc2c1` [Example 80, N-((7-Methoxy-2-(pyridin-4-yl)quinolin-3-yl)methyl)-2-(pyridin-2-yl)ethanamine], the EC50 is greater than 10 µM.
With `COc1ccc2cc(CNCCCc3ccccc3)c(-c3ccncc3)nc2c1` [Example 81, N-((7-Methoxy-2-(pyridin-4-yl)quinolin-3-yl)methyl)-3-phenylpropan-1-amine], the concentration for a half-maximal effect (EC50) is less than 10 µM.
As for `COc1ccc2cc(CNCc3ccc(C(F)(F)F)cc3)c(Oc3cccnc3)nc2c1` [Example 83, 1-(7-methoxy-2-(pyridin-3-yloxy)quinolin-3-yl)-N-(4-(trifluoromethyl)benzyl)methanamine], the EC50 was less than 10 µM.
As for `COc1ccc2cc(CN[C@H](C)c3ccc(C)cc3)c(-c3ccncc3)nc2c1` [Example 85, (R)—N-((7-Methoxy-2-(pyridin-4-yl)quinolin-3-yl)methyl)-1-p-tolylethanamine], the EC50 was less than 10 µM.
On to `COc1ccc2cc(CNCc3ccc(F)cc3F)c(-c3ccncc3)nc2c1` [Example 87, N-(2,4-Difluorobenzyl)-1-(7-methoxy-2-(pyridin-4-yl)quinolin-3-yl)methanamine], for which the EC50 is less than 10 µM.
For `CN(C)c1ccc2cc(CNCc3ccc(C(F)(F)F)cc3)c(-c3ccsc3)nc2c1` [Example 88, N,N-Dimethyl-2-(thiophen-3-yl)-3-((4-(trifluoromethyl)benzylamino)methyl)quinolin-7-amine], the concentration giving a half-maximal response (EC50) was greater than 10 µM.
Take `CN(C)c1ccc2cc(CNCCc3ccc(Br)cc3)c(-c3ccsc3)nc2c1` [Example 89, 3-((4-Bromophenethylamino)methyl)-N,N-dimethyl-2-(thiophen-3-yl)quinolin-7-amine]: the EC50 was greater than 10 µM.
Take `COc1ccc2cc(CNCc3ccc(C(F)(F)F)cc3)c(-c3ccoc3)nc2c1` [Example 90, 1-(2-(Furan-3-yl)-7-methoxyquinolin-3-yl)-N-(4-(trifluoromethyl)benzyl)methanamine]: the EC50 is greater than 10 µM.

For the origin of these results see patent US20080221161A1, “HETEROCYCLIC MODULATORS OF TGR5 FOR TREATMENT OF DISEASE” (KALYPSYS, INC., priority 2007, published 2008).
